Test results reported in patent US10239957B2, “Peptide containing conjugates for dual molecular delivery of oligonucleotides” (Merck Sharp & Dohme Corp., priority 2013, dated 2019).
Where no end group is shown, it is not given here. [ ]: non-standard residue; d: D form. TGN = not defined here

Assays:
CTNNB1 [1] = assay: In vitro DMD assay: mRNA silencing enhancement by peptide conjugates after siRNA-IV treatment; assay type: cell-based; conditions: primary mouse hepatocytes, siRNA-IV 125 nM baseline
In short: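 Primary mouse hepatocytes were pretreated 1 h with siRNA-IV at 125 nM, then exposed ~16 h to peptide conjugates across a dose range, washed and held 24 h more. Target mRNA by RT-qPCR, normalized to PPIB (dddCt), expressed as enhancement over siRNA-IV alone relative to untreated cells.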

CTNNB1 [2] = assay: In vivo evaluation in mice: liver mRNA knockdown measurement; conditions: mice
Protocol: Female CD-1 mice (Charles River) were injected in accordance with either a sequential dosing paradigm or a co-dosing paradigm. In the sequential dosing paradigm, the targeted siRNA (SCE) is dosed at t=0 and the targeted peptide is separately dosed up to 2 hr before the SCE (−2 hr) or up to 24 hr after the SCE (+24 hr). In the co-dosing paradigm, the SCE and peptides are co-formulated and dosed together in the same formulation as a single injection at t=0. The mice were dosed either by intravenous (i.v.) or subcutaneous (s.c.) injection of SCE and peptide. For the i.v. doses, the compounds were injected into the tail vein of the mice. For the s.c. doses, the compounds were injected in the subcutaneous space on the back of the mouse between the shoulder blades. At the indicated harvest times (measured from t=0 when the siRNA was dosed, regardless of when the peptide was dosed), the animals were sacrificed and 3 mm liver punches were collected, preserved in RNAlater (Ambion), and stored at 4° C. Separate 5 mm liver punches were collected, placed in 96-well plates, frozen on dry ice, and stored at −80° C. until use.
The 3 mm liver punches were removed from RNAlater and homogenized in Trizol (Invitrogen) using a bead mill tissue lyser (Qiagen); disruption was performed for two 5-minute cycles at 30 Hz. RNA extraction was performed using 1-bromo-2-chloropropane (Acros Organics) and total RNA was isolated from the aqueous phase using the MagMax RNA isolation method (Ambion). […] TaqMan qPCR analysis was performed with an ABI 7900 Real-Time PCR System using TaqMan Fast Advanced Master Mix (Applied Biosystems). All TaqMan probes and primers for CTNNB1 and PPIB (housekeeping gene) were purchased from Applied Biosystems as pre-validated gene expression assays. Results are calculated by the comparative Ct method, where the difference between the CTNNB1 Ct value and the PPIB Ct value (ΔCt) is calculated and then further normalized relative to the PBS control by taking a second difference (ΔΔCt), as described previously (1).

[3] = TGN-L-siRNA-III 0.25 mg/kg IV, peptide 10 mg/kg IV 15 min after siRNA
[4] = TGN-L-siRNA-II 0.25 mg/kg IV, peptide 3 mg/kg IV 15 min after siRNA

| Substance | In vitro dddCt (vs. baseline SCE dose) (CTNNB1 [1]; Targeted peptide dose 15625 nM) | In vivo mRNA knockdown (CTNNB1 [2]; [3]) | In vitro dddCt (vs. baseline SCE dose) (CTNNB1 [1]; Targeted peptide dose 125 nM) | In vitro dddCt (vs. baseline SCE dose) (CTNNB1 [1]; Targeted peptide dose 625 nM) | In vitro dddCt (vs. baseline SCE dose) (CTNNB1 [1]; Targeted peptide dose 3125 nM) | further results |
| --- | --- | --- | --- | --- | --- | --- |
| TGN-S-S-SEQ ID NO: 1631 (D) ([dC]G[dL][dF]G[dH][dI][dH][dH][dL][dI][dH][dH]G[dL][dH][dN][dL][dI][dD][dW][dW][dN]G; not fully specified (residue 1); also: TGN attached via disulfide; listed as Homo sapiens) | −2.11 | 17% | – | – | – | – |
| TGN-S-S-SEQ ID NO: 1632 (D) ([dC]G[dL][dF]G[dE][dI][dH][dH][dL][dI][dH][dH]G[dL][dH][dN][dL][dI][dD][dW][dW][dN]G; not fully specified (residue 1); also: TGN attached via disulfide; listed as Homo sapiens) | −0.47 | 36% | −0.29 | −0.44 | −0.19 | – |
| TGN-S-S-SEQ ID NO: 1633 (D) ([dC]G[dL][dF]G[dE][dI][dH][dH][dL][dI][dH][dH]G[dL][dE][dN][dL][dI][dD][dW][dW][dN]G; not fully specified (residue 1); also: TGN attached via disulfide; listed as Homo sapiens) | – | 55% | – | −0.2 | −0.2 | In vitro dddCt (vs. baseline SCE dose) (CTNNB1 [1]; Targeted peptide dose 25 nM): −0.33 |
| TGN-S-S-SEQ ID NO: 1634 (D) ([dC]G[dL][dF]G[dE][dI][dH][dE][dL][dI][dH][dH]G[dL][dE][dN][dL][dI][dD][dW][dW][dN]G; not fully specified (residue 1); also: TGN attached via disulfide; listed as Homo sapiens) | −0.74 | 17% | −0.3 | −0.41 | −0.3 | – |
| TGN-S-S-SEQ ID NO: 1651 (D) ([dC]G[dL][dF][dE][dE][dI][dA][dE][dL][dI][dE][dE]G[dL][dE][dN][dL][dI][dD][dW]G[dN]G; not fully specified (residue 1); also: TGN attached via disulfide; listed as Homo sapiens) | −1.48 | 49% | −0.84 | −1.11 | −1.55 | – |
| TGN-S-S-SEQ ID NO: 1652 (D) ([dC][dE][dL][dF][dE][dE][dL][dA][dE][dL][dL][dW][dE]G[dL][dE][dN][dL][dI][dD][dW]G[dN][dS]; not fully specified (residue 1); also: TGN attached via disulfide; listed as Homo sapiens) | −2.03 | 37% | −1.27 | −1.5 | −1.6 | – |
| TGN-S-S-SEQ ID NO: 1653 (D) ([dC]G[dL][dF]G[dE][dI][dA][dE][dL][dI][dW][dE]G[dL][dE][dN][dL][dI][dD][dW]G[dN]G; not fully specified (residue 1); also: TGN attached via disulfide; listed as Homo sapiens) | −2.13 | 63% | – | – | – | In vitro dddCt (vs. baseline SCE dose) (CTNNB1 [1]; Targeted peptide dose 25 nM): −0.76; In vivo mRNA knockdown (CTNNB1 [2]; TGN-L-siRNA-III 0.25 mg/kg IV, peptide 50 mg/kg IV 15 min after siRNA): 69% |
| TGN-S-S-SEQ ID NO: 1712 (L): TGN-S-S-peptide; peptide CFLGALWKALSELLKNLIDWWNG (C(TGN)FLGALWKALSELLKNLIDWWNG; reading uncertain; also: TGN disulfide conjugate at Cys1; listed as Homo sapiens) | – | – | – | – | – | In vitro dddCt (vs. baseline SCE dose) (CTNNB1 [1]; Targeted peptide dose 8 nM): 0.03; In vitro dddCt (vs. baseline SCE dose) (CTNNB1 [1]; Targeted peptide dose 40 nM): 0.07; In vitro dddCt (vs. baseline SCE dose) (CTNNB1 [1]; Targeted peptide dose 200 nM): −0.08; In vitro dddCt (vs. baseline SCE dose) (CTNNB1 [1]; Targeted peptide dose 1000 nM): 0; In vitro dddCt (vs. baseline SCE dose) (CTNNB1 [1]; Targeted peptide dose 5000 nM): −0.2; In vivo mRNA knockdown (CTNNB1 [2]; TGN-L-siRNA-III 0.5 mg/kg IV, peptide 5 mg/kg IV 15 min after siRNA): 34% |
| TGN-S-S-SEQ ID NO: 1713 (L) (C(TGN)GLRHGELEELSHEEGLENLIDWWNG; reading uncertain; also: TGN disulfide conjugate at Cys1; listed as Homo sapiens) | – | 2% | – | – | – | In vitro dddCt (vs. baseline SCE dose) (CTNNB1 [1]; Targeted peptide dose 8 nM): 0.21; In vitro dddCt (vs. baseline SCE dose) (CTNNB1 [1]; Targeted peptide dose 40 nM): 0.21; In vitro dddCt (vs. baseline SCE dose) (CTNNB1 [1]; Targeted peptide dose 200 nM): 0.15; In vitro dddCt (vs. baseline SCE dose) (CTNNB1 [1]; Targeted peptide dose 1000 nM): −0.04; In vitro dddCt (vs. baseline SCE dose) (CTNNB1 [1]; Targeted peptide dose 5000 nM): 0; In vivo mRNA knockdown (CTNNB1 [2]; TGN-L-siRNA-III 0.25 mg/kg IV, peptide 2 mg/kg IV 15 min after siRNA): 0% |
| TGN-S-S-SEQ ID NO: 1740 (L): TGN-S-S-peptide; peptide GLFEAIEGFIENGWEGLAELAEALEALAAGGSC (GLFEAIEGFIENGWEGLAELAEALEALAAGGSC(TGN); reading uncertain; also: TGN linked to Cys via disulfide, TGN not defined; listed as Homo sapiens) | – | – | – | – | – | In vitro dddCt (vs. baseline SCE dose) (CTNNB1 [1]; Targeted peptide dose 8 nM): 0; In vitro dddCt (vs. baseline SCE dose) (CTNNB1 [1]; Targeted peptide dose 40 nM): 0.13; In vitro dddCt (vs. baseline SCE dose) (CTNNB1 [1]; Targeted peptide dose 200 nM): −0.07; In vitro dddCt (vs. baseline SCE dose) (CTNNB1 [1]; Targeted peptide dose 1000 nM): −0.06; In vitro dddCt (vs. baseline SCE dose) (CTNNB1 [1]; Targeted peptide dose 5000 nM): −0.06; In vivo mRNA knockdown (CTNNB1 [2]; [4]): 20% |
| TGN-S-S-SEQ ID NO: 1741(L): TGN-S-S-peptide; peptide GLFGALAEALAEALAEHLAEALAEALEALAAGGSC (GLFGALAEALAEALAEHLAEALAEALEALAAGGSC(TGN); reading uncertain; also: TGN linked to Cys via disulfide, TGN not defined; listed as Homo sapiens) | – | – | – | – | – | In vivo mRNA knockdown (CTNNB1 [2]; [4]): 24% |
| TGN-S-S-SEQ ID NO: 1744 (D) ([dC][dE][dE][dN][dW][dI]G[dL][dF]GGG[dN][dI][dW][dE][dE][dE][dE][dI][dL][dD][dL][dL]; not fully specified (residue 1); also: disulfide to TGN peptide via Cys1; listed as Homo sapiens) | – | – | – | – | – | In vivo mRNA knockdown (CTNNB1 [2]; TGN-L-siRNA-III 0.5 mg/kg IV, peptide 2 mg/kg IV 15 min after siRNA): 28%; In vivo mRNA knockdown (CTNNB1 [2]; TGN-L-siRNA-III 0.5 mg/kg IV, peptide 10 mg/kg IV 15 min after siRNA): 33% |
| siRNA-IV: CTNNB1 siRNA; passenger SEQ ID NO 1807 (clickA, 5Chol), guide SEQ ID NO 1806 (sense CUGUUGGAUUGAUUCGAAAUU; guide TUUCGAAUCAAUCCAACAGUU; click A, 5' cholesterol; vinylphosphonate MOE T; (1)..(1) aminohexyl phosphate inverted abasic cap; (1)..(2) 2′-O-methyl; (3)..(3) 2′-deoxy-2′-fluoro; (4)..(5) 2′-O-methyl; (6)..(8) 2′-deoxy-2′-fluoro; (9)..(10) 2′-O-methyl; (11)..(12) 2′-deoxy-2′-fluoro; (13)..(15) 2′-O-methyl; (16)..(16) 2′-deoxy-2′-fluoro; (17)..(17) 2′ propagyl; (18)..(19) 2′-deoxy-2′-fluoro; (20)..(21) 2′-O-methyl; (20)..(21) phosphorothioate internucleotide linkage; (21)..; (1)..(1) terminal vinyl phosphate; (1)..(1) 2′-methoxyethoxy; (2)..(21) ribonucleotide unmodified or modified as described for this sequence; …) | – | – | – | – | – | In vivo mRNA knockdown (CTNNB1 [2]; targeted siRNA alone 0.5 mg/kg IV, peptide dose 0): 25%; In vivo mRNA knockdown (CTNNB1 [2]; targeted siRNA alone 2 mg/kg IV, peptide dose 0): 25%; In vivo mRNA knockdown (CTNNB1 [2]; targeted siRNA alone 5 mg/kg IV, peptide dose 0): 35% |
